# Reference: ChEMBL document CHEMBL1158282, “Iridoid Molluscicidal Compounds from Apodytes dimidiata” (1996)
# Tested on: Bulinus africanus
# Assay: Molluscicidal activity against Bulinus africanus
# Format: functional
# Conditions: for LC50: Bulinus africanus, read-out: LD50 (the source's name)
smiles,measurement,value
COC(=O)C1=CO[C@@H](O)[C@@H]2C(CO)=CC[C@H]12 [GENIPIN],LD90,32.57 ppm
same,LC50,25.3 µg/mL
COC(=O)C1=CO[C@@H](O)[C@@H]2C(COC(C)=O)=CC[C@H]12,LD90,39.4 ppm
same,LC50,21.7 µg/mL
